Data on seven compounds can be found in ChEMBL document CHEMBL2331526, “Synthesis and characterization of novel quick-release propofol prodrug via lactonization” (Bioorg Med Chem Lett, 2013).

Series [1] concerns Rattus norvegicus. The experiment in a line: Anesthetic effect in Sprague-Dawley rat assessed as onset time of disappearance of the righting reflex at 2 times ED50, iv. It counts as functional.
The subject of series [2] is Rattus norvegicus. As to the kind of experiment: Anesthetic effect in Sprague-Dawley rat assessed as duration time of disappearance of righting reflex to recovery of righting reflex at 2 times ED50, iv. It counts as functional.
The subject of series [3] is Rattus norvegicus. As to the kind of experiment: Anesthetic effect in iv dosed Sprague-Dawley rat assessed as disappearance of the righting reflex. It is filed as functional.
The subject of another series is Plasma. The experiment in a line: Prodrug activation in preheated rat plasma assessed as propofol release at 5 umol/ml measured up to 4 hrs by HPLC analysis. It counts as cell-free. The conditions noted are these: 5000 µM.
The nature of series [4]: Drug degradation in 30% emulsion at 5 umol/ml measured up to 4 hrs by HPLC analysis. The conditions noted are these: 5000 µM. It is filed as physicochemical.
A short description of series [5]: Drug degradation in aqueous ethanol at 5 umol/ml measured up to 4 hrs by HPLC analysis. It is filed as physicochemical. To be noted: buffer, 5000 µM.
Series [6] can be described thus: Toxicity in iv dosed Sprague-Dawley rat. It is filed as organism-based. The conditions noted are these: in vivo.
A short description of series [7]: Therapeutic index, ratio of LD50 for Sprague-Dawley rat to ED50 for Sprague-Dawley rat. It is filed as organism-based. To be noted: in vivo, read-out: TI.
Series [8] is described as follows: Solubility of the compound in water. It counts as physicochemical. To be noted: buffer.
The test system of series [9] is Rattus norvegicus. The experiment in a line: Anesthetic effect in Sprague-Dawley rat assessed as disappearance of the righting reflex at 200 mg/kg, iv. It is filed as functional, organism-based. Also noted: dose 200 mg/kg.
The test system of series [10] is Rattus norvegicus. As to the kind of experiment: Toxicity in Sprague-Dawley rat assessed as duration of systemic convulsions at 34 mg/kg, iv. To be noted: in vivo. Also noted: dose 34 mg/kg, route intravenous. It counts as organism-based.
For series [11], the system named is Rattus norvegicus. As to the kind of experiment: Toxicity in Sprague-Dawley rat assessed as duration of systemic convulsions at 40 mg/kg, iv. It counts as organism-based. Also noted: dose 40 mg/kg, route intravenous. To be noted: in vivo.
Series [12] concerns Rattus norvegicus. The experiment in a line: Anesthetic effect in Sprague-Dawley rat assessed as disappearance of the righting reflex at 34 mg/kg, iv. It is filed as functional, organism-based. Also noted: dose 34 mg/kg.

Calls of active or inactive are those of the source. The rule behind the calls is not given here.

Usually ED50 stands for the dose that gives a 50% effect, or the effect in half of the subjects. In general, LD50 refers to the dose at which mortality reaches 50%. A low value points to a more toxic substance. In the case of `CC(C)c1cccc(C(C)C)c1OC(=O)CCCO`, the Time is 0.06 min in the series on Rattus norvegicus [1] and 24.36 min in the series with Rattus norvegicus [2]. The ED50 in the series with Rattus norvegicus [3] came out at 17.5 mg/kg. For the same compound, the Drug metabolism entry with Plasma is reported as “Active”. Also, the Stability result in series [4] and in series [5] was “Stable” throughout. In addition, in series [6], the LD50 was determined as 81.5 mg/kg. In addition, the selectivity ratio in [7] stood at 4.67.
Take `CC(C)c1cccc(C(C)C)c1OC(=O)CCCOC(=O)CN.O=C(O)C(F)(F)F`: in series [8], the solubility result is listed as “soluble”. Besides, the Time with Rattus norvegicus [1] was found to be 0.26 min; with Rattus norvegicus [2] it was 12.74 min. Also, the ED50 with Rattus norvegicus [3] is 14.4 mg/kg. In series [6], this compound gave an LD50 of 42.7 mg/kg. For the same compound, the selectivity ratio in [7] was 2.96.
Regarding `CCCC(=O)Oc1c(C(C)C)cccc1C(C)C`, the solubility entry in series [8] is “Insoluble”. For the same compound, the outcome in the series with Rattus norvegicus [9] was inactive.
On to `CC(C)c1cccc(C(C)C)c1OCCCCO`, for which the solubility entry in series [8] is “Insoluble”. Further, the Activity entry in the series on Rattus norvegicus [10] is given as “Toxic”. In the series with Rattus norvegicus [11], the Time is 3.8 min. In the series on Rattus norvegicus [12], the outcome was inactive.
Regarding `CC(C)c1cccc(C(C)C)c1OCOP(=O)([O-])[O-].[Na+].[Na+]` [FOSPROPOFOL DISODIUM], the values for the Time with Rattus norvegicus [1] and with Rattus norvegicus [2] were 2.17 min and 31.04 min, respectively. Moreover, the ED50 with Rattus norvegicus [3] amounted to 34.8 mg/kg. In [6], this compound displayed an LD50 of 163 mg/kg. The selectivity ratio in [7] stood at 4.69.
As for `CC(C)c1cccc(C(C)C)c1OC(=O)CCCOP(=O)([O-])[O-].[Na+].[Na+]`, the solubility result in [8] is listed as “soluble”. Further, the Time in the series on Rattus norvegicus [1] came out at 2.11 min; with Rattus norvegicus [2], 27.49 min. Moreover, the ED50 in the series with Rattus norvegicus [3] was 44.5 mg/kg. Besides, the LD50 in [6] was 288 mg/kg. Besides, the selectivity ratio in series [7] came to 6.48.
In the case of `CC(C)c1cccc(C(C)C)c1O` [PROPOFOL], the Time in the series with Rattus norvegicus [1] amounted to 0 min; in the series on Rattus norvegicus [2] it was 8.41 min. Moreover, in the series on Rattus norvegicus [3], the ED50 was determined as 6.57 mg/kg. The LD50 in [6] was determined as 27.1 mg/kg. The selectivity ratio in [7] turned out to be 4.12.
